Calls of active or inactive are those of the source.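 The calls were made as follows: active = mean IC50 for reducing PEG3 promoter reporter signal at or below a set limit, with IC50 above the limit in both counter screens; inactive = the rest, including counter screen hits.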
Legend:
PEG-3 [1] = assay: inhibition of PEG-3 promoter-driven reporter – cell-based, HeLa, luciferase, CREF/GAPDH counter-screen panel, dose response (AID 624167); settings: HeLa PEG-Prom luciferase reporter, overnight, CREF/GAPDH counter-screens
PEG-3 [2] = molecular target: PEG-3 (UniProt Q6IN02); assay: as above; settings: HeLa PEG-Prom luciferase reporter, overnight, CREF/GAPDH counter-screens, mean of runs
Chain of PEG-3 (UniProt Q6IN02) (Q6IN02 whole entry, looked up): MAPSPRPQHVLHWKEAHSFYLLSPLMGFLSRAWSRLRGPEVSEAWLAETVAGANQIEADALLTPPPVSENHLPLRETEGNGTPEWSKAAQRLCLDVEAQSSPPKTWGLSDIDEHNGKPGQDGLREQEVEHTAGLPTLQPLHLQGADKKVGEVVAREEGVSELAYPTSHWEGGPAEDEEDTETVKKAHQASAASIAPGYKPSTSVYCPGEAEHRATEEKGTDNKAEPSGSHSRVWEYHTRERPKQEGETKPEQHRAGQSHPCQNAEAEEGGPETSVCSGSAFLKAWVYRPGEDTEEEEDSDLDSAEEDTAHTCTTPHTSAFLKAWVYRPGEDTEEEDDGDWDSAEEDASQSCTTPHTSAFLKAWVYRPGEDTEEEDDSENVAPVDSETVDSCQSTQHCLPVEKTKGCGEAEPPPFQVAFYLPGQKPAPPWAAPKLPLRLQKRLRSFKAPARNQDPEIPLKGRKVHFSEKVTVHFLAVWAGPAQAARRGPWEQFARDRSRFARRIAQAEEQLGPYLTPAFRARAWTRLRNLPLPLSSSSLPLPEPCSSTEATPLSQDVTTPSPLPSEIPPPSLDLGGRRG

[3] = run 1, dose range 1, individual replicate IC50 per panel
[4] = run 2, dose range 1, individual replicate IC50 per panel

| SMILES | IC50 (PEG-3 [1]; [3]) [µM] | IC50 (PEG-3 [1]; [4]) [µM] | IC50 (PEG-3 [2]) |
| --- | --- | --- | --- |
| CC1=CC(C)[C@H](/C=N/n2c(=O)[nH]c3c([nH]c4ccc(Br)cc43)c2=O)C(C)C1 (some centres not stated) | > 100 | 5.42 | inactive |
| O=C(Nc1ccccc1)c1nc[nH]c1C(=O)NCCCCNC(=O)c1[nH]cnc1C(=O)Nc1ccccc1 | 17.7 | 4.92 | 11.3 µM |
| COc1cc(/C=C/C(=O)N2CCC=CC2=O)cc(OC)c1OC | 15.9 | 12.1 | 14 µM |
| CS(=O)(=O)c1ccc(C(=O)NCCN2C(=O)S/C(=C\c3cccnc3)C2=O)cc1[N+](=O)[O-] | 17.3 | 12.7 | 15 µM |
| Cc1ccc(C)c(CN2CCC(CNC(=O)Nc3ccc(F)c(Cl)c3)CC2)c1 | 17.3 | 12 | 14.7 µM |
| O=S(=O)(N[C@H]1C[C@@H](NS(=O)(=O)OCC(Cl)(Cl)Cl)C2CCCCC21)OCC(Cl)(Cl)Cl (some centres not stated) | 15.1 | 9.83 | 12.5 µM |
| CCN(CC)CCCCNc1ncc2cc(-c3cc(OC)cc(OC)c3)c(NC(=O)NC(C)(C)C)nc2n1 | 21 | 20.9 | inactive |
| O=c1c2c3c(sc2nc(N2CCNCC2)n1CCc1ccccc1)CCCCC3 | 32.1 | 17.4 | inactive |
| O=C(c1ccoc1)N1CCN(c2cc(-c3ccccc3)nc3cc(-c4ccccc4)nn23)CC1 | 13.3 | 9.7 | 11.5 µM |
| Cc1noc(-c2ccc(Cl)cc2)c1C(=O)O/N=C(\N)c1ccc(C(C)(C)C)cc1 | 17.3 | 9.17 | 13.2 µM |
| O=C(Nc1ccc(-c2cn3ccsc3n2)cc1)c1ccc(F)c(S(=O)(=O)N2CCOCC2)c1 | > 100 | > 100 | > 100 µM (inactive) |
| O=[N+]([O-])c1ccc(-c2nc(Nc3cccc(O)c3)c3ccccc3n2)cc1 | 13.4 | 12.5 | 12.9 µM |
| OC1(c2ccc(Cl)c(Cl)c2)C[n+]2ccccc2N1Cc1ccccc1 (configuration not stated) | 16 | 14.1 | 15.1 µM |
| CN(CCOc1ccc(Cl)cc1)C(=O)c1cc(-c2ccco2)nc2ccccc12 | 15.9 | 14.4 | 15.1 µM |
| O=C(CCN1C(=O)/C(=C/c2ccc(F)cc2)SC1=S)N[C@@H](CO)Cc1ccccc1 | 12.1 | > 100 | inactive |
| Cc1cc(C)c2sc(N(CCCN(C)C)C(=O)c3ccc(S(=O)(=O)N4CCCc5ccccc54)cc3)nc2c1 | 20.7 | 8.73 | 14.7 µM |
| COc1cc(OC)c(OC)cc1CCC(C)NCCC(c1ccccc1)c1ccccc1 (configuration not stated) | 20.3 | 16.5 | 18.4 µM |
| CCCCCCCCCCCCCCC(O)C[N+](C)(CCO)CCO (configuration not stated) | 17.7 | 11 | 14.3 µM |
| NC(=O)c1nsc(C(=O)N(c2ccccc2F)C(C(=O)NCc2ccc(F)cc2)c2ccc(O)cc2)c1N (configuration not stated) | 30.4 | 16.6 | inactive |
| CC1=NN(c2cccc(C(=O)O)c2)C(=O)/C1=C\C=C/c1ccccc1 | 17.7 | 12 | 14.8 µM |
| O=C(C[C@H]1C[C@H](C(=O)N2CCCCC2)[C@@]2(CCc3ccccc3)c3[nH]c4ccc(Cl)cc4c3CCN2C1=O)NCCc1ccccn1 | 17.8 | 25.7 | inactive |
| Cc1ccc(S(=O)(=O)c2nc(-c3ccccc3Cl)oc2N(C)C2CCN(C)CC2)cc1 | 32.7 | 20.6 | inactive |

| SMILES | IC50 (PEG-3 [1]; [3]) [µM] | IC50 (PEG-3 [1]; [4]) [µM] | IC50 (PEG-3 [2]) |
| --- | --- | --- | --- |
| CCCCC(=O)NC(c1ccccc1Cl)c1ccc2cccnc2c1O (configuration not stated) | 2.98 | > 100 | inactive |
| CSc1ccc(CN(C)C(=O)C(Cc2ccccc2)NC(=O)c2ccccc2)cc1 (configuration not stated) | 21.3 | 24.4 | inactive |
| CCN1CCN(c2ccc(S(=O)(=O)N3CCOCC3)cc2NC(=O)/C=C/c2ccc([N+](=O)[O-])cc2)CC1 | 19 | 78.3 | inactive |
| CC1=CC(O)C(O)C2(C)C1CC1OC(=O)C(O)C3C(C)C(O)C4(O)OCC13C42 (configuration not stated) | 44.9 | 84.3 | inactive |
| Cn1c(=O)c(C(=O)CCl)c(N)n(Cc2ccccc2)c1=O | 28.6 | 13.2 | inactive |
| O=C1NC(=S)NC(=O)C1=Cc1cccn1-c1ccc(O)cc1 | 18 | 14.8 | 16.4 µM |
| Cc1cnc(NC(=O)C2CC(=O)N(c3cccc(Cl)c3)C2)s1 (configuration not stated) | 23.5 | 3.78 | 13.6 µM |
| CCc1ccc(OCCNc2cc(N3CCNC(C)C3)ccc2[N+](=O)[O-])cc1 (configuration not stated) | 16.3 | 8.98 | 12.7 µM |
| O=c1[nH]c(=S)[nH]c(O)c1/C=C1\C=Nc2ccccc21 | > 100 | 17.6 | inactive |
| O=c1c2ccccc2oc2cc(C#CC3(O)CCCCC3)ccc12 | 27.8 | > 100 | inactive |
| COc1cccc(NC(=O)CN(C)C(=O)c2cc(-c3ccc(F)cc3)nc3ccccc23)c1 | 25.8 | 44.6 | inactive |
| COC(=O)C1=C(C)N(Cc2ccccc2)C(=NCCc2c[nH]c3ccccc23)N[C@H]1c1cccc(C(F)(F)F)c1 | 17.8 | 23 | inactive |
| Cc1ccc(N2CC(C(=O)Nc3nccs3)CC2=O)cc1Cl (configuration not stated) | 33 | 10.5 | inactive |
| COc1ccc(C(=O)Nc2cccc(C(=O)N/N=C/c3ccc(OC)cc3OC)c2)cc1 | 28.1 | 38 | inactive |
| CC(NNC(=S)N1CCN(c2ccccn2)CC1)c1nccc2ccccc12 (configuration not stated) | 15.2 | 36 | inactive |
| COc1cccc(NC(=O)CN(C)C(=O)c2cccnc2Nc2cccc(C(F)(F)F)c2)c1 | 22.5 | 24.2 | inactive |
| CCCn1c(=N)n(CC(=O)c2ccc(Cl)cc2)c2ccccc21 | 19.1 | 49.4 | inactive |
| Cc1ccccc1CN1Cc2cnnn2-c2ccccc2C1C#N (configuration not stated) | 15.6 | 12.1 | 13.9 µM |
| CN(C)CCNc1ncnc2c1ncn2[C@H]1CN(Cc2ccc(-c3ccccc3)cc2)C[C@@H](CO)O1 | 30.7 | 17.4 | inactive |
| Nc1nc(CCl)nc(Nc2cccc3ccccc23)n1 | > 100 | > 100 | > 100 µM (inactive) |
| Cc1cc(C(=O)CN2C(=O)c3ccccc3S2(=O)=O)c(C)n1C(C)C | 6.41 | 17.8 | 12.1 µM |
| Cn1nnnc1Sc1ncnc2scc(-c3ccc4c(c3)OCO4)c12 | 34.5 | 53.6 | inactive |

| SMILES | IC50 (PEG-3 [1]; [3]) [µM] | IC50 (PEG-3 [1]; [4]) [µM] | IC50 (PEG-3 [2]) |
| --- | --- | --- | --- |
| COC(=O)Cc1[nH]n(-c2nc3ccccc3s2)c(=O)c1C(C)=Nc1ccc(Cl)cc1 | 24.7 | 0.372 | 12.5 µM |
| Cc1nc(N2CCN(S(=O)(=O)c3ccccc3C#N)CC2)c2c(-c3ccccc3)csc2n1 | > 100 | > 100 | > 100 µM (inactive) |
| CC(NS(=O)(=O)OCC(Cl)(Cl)Cl)c1ccc(C(C)(C)C)cc1 (configuration not stated) | 38.1 | > 100 | inactive |
| CCc1ccc(NC(=O)CSc2nc3ccccc3c(=O)n2CCCN2CCC(C)CC2)cc1 | 19.8 | 14.8 | 17.3 µM |
| CCOC(=O)c1sc2nc(CSc3ccccc3)nc(N3CCCN(C)CC3)c2c1C | 19.4 | 19.4 | 19.4 µM |
| COc1ccccc1N1CCN(C(=O)c2sc3ncnc(N4CCN(c5ccccn5)CC4)c3c2C)CC1 | 27.6 | 19.7 | inactive |
| Cc1c(C(=O)N2CCN(c3ccc(F)cc3)CC2)sc2ncnc(N3CCN(c4ccccn4)CC3)c12 | 11.9 | 15.6 | 13.7 µM |
| COc1ccc(Nc2oc(COc3ccccc3OC)nc2C#N)cc1 | 5.83 | 39.4 | inactive |
| CN(C(=O)OC(C)(C)C)c1ccc(-c2nc3ccccc3s2)cc1 | < 0.2 | 4.43 | 2.31 µM |
| CC(C)CN(C(=O)COC(=O)/C=C/c1ccc(Cl)c(Cl)c1)c1c(N)n(Cc2ccccc2)c(=O)[nH]c1=O | > 100 | > 100 | > 100 µM (inactive) |
| CCC(=C(c1ccc(OC)cc1)c1ccc(OC)cc1)c1cn(CC(O)CN2CCN(C)CC2)c2ccccc12 (configuration not stated) | 18.9 | 12.5 | 15.7 µM |
| Cc1ccc(C(=O)N(CCCN(C)C)c2nc3ccc(Cl)cc3s2)cc1C | 18.9 | 18 | 18.4 µM |
| CCOC(=O)c1c(C)[nH]c(C(=O)OCC(=O)Nc2sccc2C(N)=O)c1C | 31.1 | 68.7 | inactive |
| CCN1CCN(Cc2c(O)ccc3c2O/C(=C\C=C\c2ccccc2)C3=O)CC1 | 46.6 | 11.5 | inactive |
| CC(=O)NC(c1ccc(C)cc1)c1cc(Cl)c2cccnc2c1O (configuration not stated) | 3.25 | > 100 | inactive |
| CCOc1cccc2sc(N(CCCN(C)C)C(=O)c3ccc(S(=O)(=O)N(CC)Cc4ccccc4)cc3)nc12 | 19.1 | 11.8 | 15.4 µM |
| CC(C)n1cc(CN2CCC(C(=O)Nc3cccc(-c4cccc(Cl)c4)c3)CC2)cn1 | 17.4 | 9.39 | 13.4 µM |
| COc1ccc(-c2cc(C(=O)Nc3ccccc3N3CCOCC3)c3ccccc3n2)cc1OC | > 100 | > 100 | > 100 µM (inactive) |
| CN(C)C(=O)c1cccc(-c2cnc3c(NC=O)cc(-c4cccc(C(F)(F)F)c4)cn23)c1 | 11.6 | 20.3 | 16 µM |
| CN(C)c1ccc(/C=N/NC(=O)c2nnn(-c3nonc3N)c2COc2ccc(F)cc2)cc1 | > 100 | > 100 | > 100 µM (inactive) |

— PubChem BioAssay AID624167 (Sanford-Burnham Center for Chemical Genomics, 2012)
